How the values were obtained:
[1] = test system: papulopustular rosacea in patients aged 65 years and older; test: Randomized, double-blind, vehicle-controlled 12-week study of E-BPO cream: Investigator Global Assessment (IGA) success rate; assay type: in vivo, human; conditions: Week 8
Protocol: Description: A randomized, double-blind, multi-center, parallel group, active- and vehicle-controlled study of encapsulated 5% benzoyl peroxide cream (E-BPO) and vehicle cream was performed to assess the efficacy and safety of E-BPO compared to vehicle. Study duration was 12 weeks and included approximately 350 male and female patients afflicted with papulopustular rosacea. 71 patients (about 20%) were at least 65 years of age.
Patients were admitted into the study after meeting all inclusion/exclusion criteria, including a clinical diagnosis of rosacea. Subjects with moderate to severe rosacea who were appropriate for systemic treatment were counseled regarding their treatment options by the Principal Investigator. At each visit, a 5-point IGA scale of rosacea and inflammatory lesion counts were performed and recorded.
Dosing: Patients were randomly organized in a 2:1 ratio to the study product or vehicle treatment group, respectively. Patients applied the study product once daily for 12 weeks on the face in a thin layer to provide even distribution.
Clinical and Safety Evaluations were performed at Baseline and Weeks 2, 4, 8 and 12.
The success rate of the treatment of rosacea (defined as a 2-grade improvement in the IGA relative to Baseline at Weeks 2, 4, […] and 12, with an IGA of Clear or Almost Clear) in patients aged 65 years and older are shown in Table 1 and FIG. 1. […]

[2] = test system: rosacea; conditions: Gul 2008; BPO as sole active agent; cited from earlier work

## O=C(OOC(=O)c1ccccc1)c1ccccc1 [BPO, Benzoyl peroxide]
[1]
  Success rate greater than the success rate achieved with vehicle alone (difference drug - vehicle): 25%
[2]
  Response of rosacea lesions: unresponsive
